Assays:
[1] = Calf physiological parameters (bodyweight, average daily gain); assay type: in vivo, calves (Holstein, Montbéliarde, Holstein×Montbéliarde); conditions: for effect on host animal performance (in words): early life treatment, birth to week 14
Protocol: (§1) At birth 18 female Holstein (n=12), Montbéliarde (n=4) and Holstein×Montbéliarde (n=2) calves were randomly assigned to either a treatment group (3 mg 3-NOP (active)/kg BW) or control group (placebo supplement i.e. without 3-NOP but with silica and propylene glycol). 3-NOP was supplemented in the form of a 3-NOP powdered formulation (10 wt.-% of 3-NOP admixed with silica and propylene glycol) such that breed distribution and birthweight were balanced across groups. Treatment was administered daily from birth until three weeks post-weaning (week 14) (admixed in a small volume of water and delivered by an oral gavage). Calves were weighed weekly. Milk and concentrate intake prior to weaning was recorded using automated feeders. Animals were group housed in a single pen following weaning. Samples of rumen liquid were collected at week 1, 4, 11, 14, 23 and 60 weeks of life and DNA from these samples of rumen liquid content were extracted and subjected to Illumina MiSeq sequencing. Methane emissions from the calves were measured using the GreenFeed system (C-Lock, Rapid City, SD USA) from weaning at week 11 to week 23 and later from week 56 to 60 of life.

[2] = system: calves; assay: Methane emissions from calves measured using the GreenFeed system after early-life supplementation; assay type: in vivo, calves (Holstein, Montbéliarde, Holstein×Montbéliarde); conditions: for methane emissions: n = 10
Source text: The methane emissions respectively methane reductions as referred to herein can be measured in individual animals in metabolic chambers by methods known in the art (Grainger et al., 2007 J. Dairy Science; 90: 2755-2766). Moreover, it can also be assessed at barn level by an emerging technology using laser beam (McGinn et al., 2009, Journal of Environ-mental Quality; 38: 1796-1802). Alternatively, methane produced by a ruminant can also be assessed with the GreenFeed system (C-Lock, Rapid City, SD USA), which method is preferred.
as §1

Bodyweight (BW) of calves ([1]; age 0 weeks, treatment group n = 10): 41.6 kg
Bodyweight (BW) of calves ([1]; age 11 weeks, treatment group n = 10): 102.2 kg
Bodyweight (BW) of calves ([1]; age 14 weeks, treatment group n = 10): 119.5 kg
Bodyweight (BW) of calves ([1]; age 17 weeks, treatment group n = 10): 134.9 kg
Bodyweight (BW) of calves ([1]; age 20 weeks, treatment group n = 10): 151.8 kg
Bodyweight (BW) of calves ([1]; age 23 weeks, treatment group n = 10): 189.5 kg
Bodyweight (BW) of calves ([1]; age 56 to 60 weeks, treatment group n = 10): 339 kg
effect on host animal performance (in words) [1]: no detrimental effects
Average Daily Gain (ADG) ([1]; from week 0 to 23 weeks of life, treatment group n = 10): 0.79 kg/day
Compound: O=[N+]([O-])OCCCO [3-nitrooxypropanol, 3-Nitrooxypropanol]
effect on host animal performance (in words) ([1]; listed as 3-NOP): no adverse effect on performance
methane emissions of treated animals (in words) ([2]; after 60 weeks of age, supplementation from birth until 14 weeks of age): lower methane emissions
methane emissions ([2]; age 11 weeks (weaning), during daily supplementation, 3 mg 3-NOP/kg BW oral gavage from birth): 45.0 g/day
methane emissions ([2]; age 14 weeks, end of daily supplementation, 3 mg 3-NOP/kg BW oral gavage from birth): 63.4 g/day
methane emissions ([2]; age 17 weeks, no supplementation (stopped week 14)): 68.2 g/day
methane emissions ([2]; age 20 weeks, no supplementation (stopped week 14)): 88.9 g/day
methane emissions ([2]; age 23 weeks, no supplementation (stopped week 14)): 97.13 g/day
methane emissions ([2]; age 56 to 60 weeks, no supplementation (stopped week 14)): 193.0 g/day
overall reduction in methane emissions (g CH4/d) ([2]; throughout the post-weaning period (week 11 to 23), vs control, P=0.03, treatment ceased three weeks post-weaning): 11.6%
overall reduction in methane emissions ([2]; weeks 56 to 60 of life, vs control, P<0.05, no supplementation since week 14): about 19%
